From patent US10301284B2, “Therapeutic inhibitory compounds” (LifeSci Pharmaceuticals, Inc., priority 2016, dated 2019)
Read-outs that look alike come from different tables or passages of the source.

Legend:
[1] = molecular target: T1, human Plasma Kallikrein (Homo sapiens (Human), UniProt P03952); experiment: In vitro enzyme inhibition of human plasma kallikrein (Pro-Phe-Arg-AMC cleavage); type: biochemical; settings: human plasma kallikrein, PFR-AMC substrate, 37° C.; read-out: hPK IC50
Method in brief: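 Human plasma kallikrein preincubated 5 min at 37 °C with compound in 50 mM Tris-HCl pH 7.5, 150 mM NaCl, 0.01% Triton X-100. Reaction started with Pro-Phe-Arg-AMC, fluorescence read every 43 s for 1 h at 37 °C. IC50 from highest mean velocity over 20 reads (~15 min).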

[2] = molecular target: T1, human Plasma Kallikrein; experiment: Human whole blood kallikrein inhibition (ellagic acid-activated human plasma, Z-FR-2-AMC substrate); type: biochemical
Experimental: The ability of the compounds disclosed herein to inhibit human plasma kallikrein activity was quantified according to the procedures below.
All dilutions were prepared in an assay buffer comprising 50 mM Tris-HCl pH 7.2, 150 mM NaCl, and 0.01% Triton X-100.
Human plasma was thawed on ice and centrifuged for 15 min at 4° C. to remove platelets. A 1 mM stock solution of ellagic acid was diluted to 8 μM and mixed with human plasma, after removing platelets, at a ratio of 1:0.8. The mixture of human plasma and ellagic acid was further diluted 32-fold in the assay buffer, to yield the final mixture for use in the inhibition assay.
A 22.5 μL volume of the final mixture of human plasma and ellagic acid was added to a 96-well microwell plate and the plate was incubated for 15 min at 37° C.
The test compound solution was prepared to provide final concentrations of 20 μM, 5 μM, 1.25 μM, 312.5 nM, 78.125 nM, 19.531 nM, 4.883 nM, 1.221 nM, 0.305 nM, and 0.076 nM. Each test compound concentration was tested in duplicates.
In addition to the inhibitor control and test wells, the 96 well assay plate included positive control wells which contain the mixture of human plasma and ellagic acid without test compounds, and background wells which contain neither the mixture of human plasma and ellagic acid nor the test compounds. The total volume of liquid in positive control and background wells was brought up to 35 μL using the assay buffer.
The assay plate containing test compounds mixed with human plasma and ellagic acid and appropriate controls was incubated at 37° C. for 5 min. A 10 mM stock solution of substrate Z-FR-2-AMC was diluted to 133.2 μM in the assay buffer, and 15 μL of the diluted substrate was added to each well, to yield a final substrate concentration of 40 μM in each well. The reagents were mixed by shaking the plate gently for 30 sec.
The enzyme reaction was quantified by immediate kinetic reading of the assay plate using excitation/emission wavelengths of 330 nm/440 nm respectively. Fluorescence intensity was recorded for 60 min, using a time interval of 43 sec.
The inhibition activity of the test compounds were evaluated using the IC50 values, calculated according to the dose-response curve of the test compounds, fitted using the “log(inhibitor)−response(variable slope)” equation in GraphPadPrism software (GraphPad Software, Inc.).
The percentage inhibition (EC50) was calculated using the following equation:
[formula] where, Mean(BG) is the average value of the fluorescence intensity of the background wells and Mean(PC) is the average value of the fluorescence intensity of the positive control wells.

[3] = Pharmacokinetic evaluation, oral exposure in rats; type: in vivo; settings: male Sprague-Dawley rats, single oral dose 10 mg/kg via oral gavage, plasma
Experimental: Pharmacokinetic studies of select compounds were performed to assess the pharmacokinetic properties. Male Sprague-Dawley rats were administered a single oral dose of the test compound at 10 mg/kg (dose concentration: 2 mg/mL, dose volume: 5 ml/kg) via oral gavage. Blood samples were collected via jugular vein at pre-dose, post-dose 5 min, 15 min, 30 min, 1 h, 2 h, 4 h, 6 h, 8 h, 10 h and 24 h, and centrifuged (8000 rpm for 6 minutes at 2-8° C.). The resulting plasma fractions were analyzed by LC/MS/MS to determine the concentration of the test compound.

[4] = human plasma activated with ellagic acid, Z-FR-2-AMC 40 μM, 37° C., read-out: HWB EC50

T1 sequence (P03952 391-638 limits assumed): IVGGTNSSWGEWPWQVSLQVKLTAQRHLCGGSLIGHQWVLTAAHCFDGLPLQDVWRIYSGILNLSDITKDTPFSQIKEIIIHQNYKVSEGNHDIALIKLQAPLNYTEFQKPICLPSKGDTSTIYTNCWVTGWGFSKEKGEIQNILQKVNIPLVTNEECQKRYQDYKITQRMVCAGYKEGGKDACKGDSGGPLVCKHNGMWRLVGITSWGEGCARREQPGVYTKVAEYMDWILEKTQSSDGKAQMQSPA
T1 sequence (P03952 20-390 partner limits assumed): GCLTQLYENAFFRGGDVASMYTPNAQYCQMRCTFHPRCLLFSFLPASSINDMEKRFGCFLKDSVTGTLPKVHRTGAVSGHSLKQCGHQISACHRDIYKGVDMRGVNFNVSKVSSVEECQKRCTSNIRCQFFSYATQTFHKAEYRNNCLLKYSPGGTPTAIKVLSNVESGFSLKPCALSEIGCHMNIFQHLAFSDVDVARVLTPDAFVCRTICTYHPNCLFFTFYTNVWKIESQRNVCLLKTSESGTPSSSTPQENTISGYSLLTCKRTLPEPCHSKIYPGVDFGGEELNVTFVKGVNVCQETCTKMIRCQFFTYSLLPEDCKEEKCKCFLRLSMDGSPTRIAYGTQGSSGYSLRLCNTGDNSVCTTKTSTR

## Cc1cc(N)nc(C)c1CNC(=O)c1nn(Cc2ccc3ncc(Cl)cc3c2)nc1C#N [Example 95, N-((6-amino-2,4-dimethylpyridin-3-yl)methyl)-2-((3-chloroquinolin-6-yl)methyl)-5-cyano-2H-1,2,3-triazole-4-carboxamide]
[1]
  IC50: < 100 nM
[2]; [4]
  EC50: < 100 nM
[3]; rat, read-out: AUC
  AUC: 100 to 1000 ng·h/mL

## Cc1cc(N)nc(C)c1CNC(=O)c1cn(Cc2ccc3ncc(Cl)cc3c2)c(N)n1 [Example 28, 2-amino-N-((6-amino-2,4-dimethylpyridin-3-yl)methyl)-1-((3-chloroquinolin-6-yl)methyl)-1H-imidazole-4-carboxamide]
[1]
  IC50: < 100 nM
[2]; [4]
  EC50: < 100 nM
[3]; rat, read-out: AUC
  AUC: < 100 ng·h/mL

## Cc1cc(N)nc(C)c1CNC(=O)c1cnn(Cc2ccc3ncc(Cl)cc3c2)n1 [Example 21, N-((6-amino-2,4-dimethylpyridin-3-yl)methyl)-2-((3-chloroquinolin-6-yl)methyl)-2H-1,2,3-triazole-4-carboxamide]
[1]
  IC50: < 100 nM
[2]; [4]
  EC50: < 100 nM
[3]; rat, read-out: AUC
  AUC: 1000 to 10000 ng·h/mL

## Cc1cc(N)nc(C)c1CNC(=O)c1cn(Cc2ccc3ncc(Cl)cc3c2)c2ccncc12 [Example 35, N-((6-amino-2,4-dimethylpyridin-3-yl)methyl)-1-((3-chloroquinolin-6-yl)methyl)-1H-pyrrolo[3,2-c]pyridine-3-carboxamide]
[1]
  IC50: < 100 nM
[2]
  EC50: < 100 nM
[3]
  AUC: BLQ

## Cc1nc(N)ccc1CNC(=O)c1nn(Cc2ccc3ncc(Cl)cc3c2)c2ccc(=O)[nH]c12 [Example 139, N-((6-amino-2-methylpyridin-3-yl)methyl)-1-((3-chloroquinolin-6-yl)methyl)-5-oxo-4,5-dihydro-1H-pyrazolo[4,3-b]pyridine-3-carboxamide]
[1]
  IC50: < 100 nM
[2]
  EC50: < 100 nM
[3]; rat, read-out: AUC
  AUC: 100 to 1000 ng·h/mL

## 2-amino-N-((6-amino-2,4-dimethylpyridin-3-yl)methyl)-1-((3-chloroquinolin-6-yl)methyl)-1H-imidazole-4-carboxamide [Example 24]
[1]
  IC50: < 100 nM
[2]; [4]
  EC50: < 100 nM
[3]
  AUC: B (>100 ng · h/mL to ≤1000 ng · h/mL)

## Cc1cc(N)nc(C)c1CNC(=O)c1cn(Cc2ccc3ncc(Cl)cc3c2)c2cncc(C#N)c12 [Example 123, N-((6-amino-2,4-dimethylpyridin-3-yl)methyl)-1-((3-chloroquinolin-6-yl)methyl)-4-cyano-1H-pyrrolo[2,3-c]pyridine-3-carboxamide]
[1]
  IC50: < 100 nM
[2]
  EC50: < 100 nM
[3]; rat, read-out: AUC
  AUC: < 100 ng·h/mL

## CC(=O)Nc1cn(Cc2ccc3ncc(Cl)cc3c2)nc1C(=O)NCc1c(C)cc(N)nc1C [Example 19, 4-acetamido-N-((6-amino-2,4-dimethylpyridin-3-yl)methyl)-1-((3-chloroquinolin-6-yl)methyl)-1H-pyrazole-3-carboxamide]
[1]
  IC50: < 100 nM
[2]; [4]
  EC50: < 100 nM
[3]; rat, read-out: AUC
  AUC: 100 to 1000 ng·h/mL

## Cc1cc(N)nc(C)c1CNC(=O)c1cn(Cc2ccc3ncc(Cl)cc3c2)nc1CN [Example 27, N-((6-amino-2,4-dimethylpyridin-3-yl)methyl)-3-(aminomethyl)-1-((3-chloroquinolin-6-yl)methyl)-1H-pyrazole-4-carboxamide]
[1]
  IC50: < 100 nM
[2]; [4]
  EC50: < 100 nM
[3]; rat, read-out: AUC
  AUC: < 100 ng·h/mL

## Cc1cnc2ccc(Cn3cc(C(=O)NCc4c(C)cc(N)nc4C)c(C#N)n3)cc2c1 [Example 81, N-((6-amino-2,4-dimethylpyridin-3-yl)methyl)-3-cyano-1-((3-methylquinolin-6-yl)methyl)-1H-pyrazole-4-carboxamide]
[1]
  IC50: < 100 nM
[2]; [4]
  EC50: < 100 nM
[3]; rat, read-out: AUC
  AUC: 100 to 1000 ng·h/mL

## Cc1cc(N)nc(C)c1CNC(=O)c1cn(Cc2ccc3ncc(Cl)cc3c2)c2cnccc12 [Example 16, N-((6-amino-2,4-dimethylpyridin-3-yl)methyl)-1-((3-chloroquinolin-6-yl)methyl)-1H-pyrrolo[2,3-c]pyridine-3-carboxamide]
[1]
  IC50: < 100 nM
[2]
  EC50: < 100 nM
[3]; rat, read-out: AUC
  AUC: 100 to 1000 ng·h/mL

## Cc1cc(N)nc(C)c1CNC(=O)c1cn(Cc2ccc3ncc(Cl)cc3c2)nc1C(F)(F)F [Example 15, N-((6-amino-2,4-dimethylpyridin-3-yl)methyl)-1-((3-chloroquinolin-6-yl)methyl)-3-(trifluoromethyl)-1H-pyrazole-4-carboxamide]
[1]
  IC50: < 100 nM
[2]; [4]
  EC50: < 100 nM
[3]; rat, read-out: AUC
  AUC: 1000 to 10000 ng·h/mL

## Cc1cc(N)nc(C)c1CNC(=O)c1nc(Cc2ccc3ncc(Cl)cc3c2)n2ccccc12 [Example 9, N-((6-amino-2,4-dimethylpyridin-3-yl)methyl)-3-((3-chloroquinolin-6-yl)methyl)imidazo[1,5-a]pyridine-1-carboxamide]
[1]
  IC50: < 100 nM
[2]; [4]
  EC50: < 100 nM
[3]; rat, read-out: AUC
  AUC: 100 to 1000 ng·h/mL

## Cc1cc(N)nc(C)c1CNC(=O)c1nn(Cc2ccc3ncc(Cl)cc3c2)cc1C(F)(F)F [Example 22, N-((6-amino-2,4-dimethylpyridin-3-yl)methyl)-1-((3-chloroquinolin-6-yl)methyl)-4-(trifluoromethyl)-1H-pyrazole-3-carboxamide]
[1]
  IC50: < 100 nM
[2]; [4]
  EC50: < 100 nM
[3]; rat, read-out: AUC
  AUC: 100 to 1000 ng·h/mL

## Cc1cc(N)nc(C)c1CNC(=O)c1cnn(Cc2ccc3ncc(Cl)cc3c2)c1 [Example 2, N-((6-amino-2,4-dimethylpyridin-3-yl)methyl)-1-((3-chloroquinolin-6-yl)methyl)-1H-pyrazole-4-carboxamide]
[1]
  IC50: < 100 nM
[2]; [4]
  EC50: < 100 nM
[3]; rat, read-out: AUC
  AUC: 100 to 1000 ng·h/mL

## Cc1cnc2c(C(C)(C)O)cc(Cn3ncc(C(=O)NCc4c(C)cc(N)nc4C)c3C#N)cc2c1 [Example 67, N-((6-amino-2,4-dimethylpyridin-3-yl)methyl)-5-cyano-1-((8-(2-hydroxypropan-2-yl)-3-methylquinolin-6-yl)methyl)-1H-pyrazole-4-carboxamide]
[1]
  IC50: 1000 to 10000 nM
[2]; [4]
  EC50: < 100 nM
[3]; rat, read-out: AUC
  AUC: < 100 ng·h/mL

## Cc1cc(N)nc(C)c1CNC(=O)c1nc(N)n(Cc2ccc3ncc(Cl)cc3c2)n1 [Example 20, 5-amino-N-((6-amino-2,4-dimethylpyridin-3-yl)methyl)-1-((3-chloroquinolin-6-yl)methyl)-1H-1,2,4-triazole-3-carboxamide]
[1]
  IC50: < 100 nM
[2]; [4]
  EC50: < 100 nM
[3]; rat, read-out: AUC
  AUC: < 100 ng·h/mL

## Cc1cc(N)nc(C)c1CNC(=O)c1cn(Cc2ccc3ncc(Cl)cc3c2)nc1C [Example 38, N-((6-amino-2,4-dimethylpyridin-3-yl)methyl)-1-((3-chloroquinolin-6-yl)methyl)-3-methyl-1H-pyrazole-4-carboxamide]
[1]
  IC50: < 100 nM
[2]; [4]
  EC50: < 100 nM
[3]; rat, read-out: AUC
  AUC: 1000 to 10000 ng·h/mL

## N#Cc1nn(Cc2cc(F)c3ncc(Cl)cc3c2)cc1C(=O)NCc1ccc2c(N)nccc2c1 [Example 54, N-((1-aminoisoquinolin-6-yl)methyl)-1-((3-chloro-8-fluoroquinolin-6-yl)methyl)-3-cyano-1H-pyrazole-4-carboxamide]
[1]
  IC50: < 100 nM
[2]; [4]
  EC50: < 100 nM
[3]; rat, read-out: AUC
  AUC: < 100 ng·h/mL

## Cc1cc(N)nc(C)c1CNC(=O)c1cn(Cc2cc(C#N)c3ncc(Cl)cc3c2)nc1C#N [Example 69, N-((6-amino-2,4-dimethylpyridin-3-yl)methyl)-1-((3-chloro-8-cyanoquinolin-6-yl)methyl)-3-cyano-1H-pyrazole-4-carboxamide]
[1]
  IC50: < 100 nM
[2]; [4]
  EC50: < 100 nM
[3]; rat, read-out: AUC
  AUC: < 100 ng·h/mL

## Cc1cnc2c(C#N)cc(Cn3cc(C(=O)NCc4c(C)cc(N)nc4C)c(C#N)n3)cc2c1 [Example 62, N-((6-amino-2,4-dimethylpyridin-3-yl)methyl)-3-cyano-1-((8-cyano-3-methylquinolin-6-yl)methyl)-1H-pyrazole-4-carboxamide]
[1]
  IC50: < 100 nM
[2]; [4]
  EC50: < 100 nM
[3]; rat, read-out: AUC
  AUC: < 100 ng·h/mL
